Data published in ChEMBL document CHEMBL3526017, “Predicting the drug interaction potential of AMG 853, a dual antagonist of the D-prostanoid and chemoattractant receptor-homologous molecule expressed on T helper 2 cells receptors” (Drug Metab Dispos, 2012).

Experiments:
[1] = target: T1, UDP-glucuronosyltransferase 1A8 (Homo sapiens, UniProt Q9HAW9); assay: Drug metabolism assessed as human recombinant UGT1A8-mediated compound formation treated with AMG 853 at 10 uM after 30 mins by LC-MS/MS analysis; assay type: ADME; conditions: recombinant enzyme, 0.5 h
[2] = target: T2, UDP-glucuronosyltransferase 1A1 (Homo sapiens, UniProt P22309); assay: Drug metabolism assessed as human recombinant UGT1A1-mediated compound formation treated with AMG 853 after 45 mins by LC-MS/MS analysis in presence of UDPGA; assay type: ADME; conditions: recombinant enzyme, 0.75 h
T2 sequence (P22309 whole entry): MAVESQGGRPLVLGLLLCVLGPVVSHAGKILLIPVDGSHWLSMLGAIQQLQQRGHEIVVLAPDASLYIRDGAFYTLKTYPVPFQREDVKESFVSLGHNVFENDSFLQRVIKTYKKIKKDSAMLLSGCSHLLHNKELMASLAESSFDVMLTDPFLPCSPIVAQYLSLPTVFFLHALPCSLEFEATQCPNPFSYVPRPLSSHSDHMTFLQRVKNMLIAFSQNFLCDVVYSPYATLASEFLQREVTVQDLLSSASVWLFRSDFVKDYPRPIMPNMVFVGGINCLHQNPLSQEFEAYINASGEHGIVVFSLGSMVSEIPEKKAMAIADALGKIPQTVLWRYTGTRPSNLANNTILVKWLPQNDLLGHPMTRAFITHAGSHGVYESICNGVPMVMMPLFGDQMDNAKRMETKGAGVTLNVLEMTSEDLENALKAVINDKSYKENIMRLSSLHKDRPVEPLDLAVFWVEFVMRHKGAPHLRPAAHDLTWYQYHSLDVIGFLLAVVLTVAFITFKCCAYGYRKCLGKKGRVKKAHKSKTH

[3] = target: T3, UDP-glucuronosyltransferase 1A3 (Homo sapiens, UniProt P35503); assay: Drug metabolism assessed as human recombinant UGT1A3-mediated compound formation treated with AMG 853 at 10 uM after 30 mins by LC-MS/MS analysis; assay type: ADME; conditions: recombinant enzyme, 0.5 h
T3 sequence (P35503 whole entry): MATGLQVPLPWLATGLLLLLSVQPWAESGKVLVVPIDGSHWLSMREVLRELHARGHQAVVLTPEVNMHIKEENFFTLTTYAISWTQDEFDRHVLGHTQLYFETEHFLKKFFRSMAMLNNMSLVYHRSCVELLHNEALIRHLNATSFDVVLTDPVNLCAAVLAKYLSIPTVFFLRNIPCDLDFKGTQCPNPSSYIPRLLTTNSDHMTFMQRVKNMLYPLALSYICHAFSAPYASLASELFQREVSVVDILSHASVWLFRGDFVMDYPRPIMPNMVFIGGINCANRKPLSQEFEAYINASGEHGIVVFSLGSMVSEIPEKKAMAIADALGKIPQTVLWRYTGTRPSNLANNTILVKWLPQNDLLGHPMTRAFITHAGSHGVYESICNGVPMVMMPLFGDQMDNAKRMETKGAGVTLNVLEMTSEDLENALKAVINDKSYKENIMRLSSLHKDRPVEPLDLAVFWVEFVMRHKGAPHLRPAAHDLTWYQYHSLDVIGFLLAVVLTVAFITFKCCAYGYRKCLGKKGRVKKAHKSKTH

[4] = Drug metabolism in human liver microsomes assessed as […]-mediated compound formation after 15 mins by LC-MS/MS analysis in presence of UDPGA; assay type: ADME; conditions: 0.25 h
Cytochrome P450 2C8 [5] = target: T4, Cytochrome P450 2C8 (Homo sapiens, UniProt P10632); assay: Drug metabolism assessed as recombinant CYP2C8 (unknown origin)-mediated 2-(4-(4-(tert-butylcarbamoyl)-2-(2-chloro-4-(1-hydroxycyclopropyl)phenylsulfonamido)phenoxy)-5-chloro-2-fluorophenyl)acetic acid formation at 10 uM after 30 mins by LC-MS/MS analysis; assay type: ADME; conditions: recombinant enzyme, 0.5 h
T4 sequence (P10632 whole entry): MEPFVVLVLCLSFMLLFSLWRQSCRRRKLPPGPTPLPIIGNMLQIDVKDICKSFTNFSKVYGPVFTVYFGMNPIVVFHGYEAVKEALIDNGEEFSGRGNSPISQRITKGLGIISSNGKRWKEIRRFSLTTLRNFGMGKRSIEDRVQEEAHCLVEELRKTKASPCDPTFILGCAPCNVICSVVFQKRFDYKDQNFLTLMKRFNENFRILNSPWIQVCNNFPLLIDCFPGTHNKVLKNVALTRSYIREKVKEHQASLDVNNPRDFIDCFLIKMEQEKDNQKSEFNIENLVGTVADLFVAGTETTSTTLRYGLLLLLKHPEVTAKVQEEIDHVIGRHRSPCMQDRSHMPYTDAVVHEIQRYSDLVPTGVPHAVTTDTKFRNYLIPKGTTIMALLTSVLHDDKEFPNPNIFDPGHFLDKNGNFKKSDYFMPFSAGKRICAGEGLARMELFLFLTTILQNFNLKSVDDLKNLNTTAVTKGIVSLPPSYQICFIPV

[6] = Cmax in healthy human at 50 mg, po in presence of ketoconazole; assay type: ADME, organism-based; parameters: dose 50 mg, route oral; conditions: in vivo
[7] = target: T2, UDP-glucuronosyltransferase 1A1; assay: (§1) Drug metabolism assessed as human recombinant UGT1A1-mediated (2S,3S,4S,5R,6S)-6-(2-(4-(4-(tert-butylcarbamoyl)-2-(2-chloro-4-cyclopropylphenylsulfonamido)phenoxy)-5-chloro-2-fluorophenyl)acetoxy)-3,4,5-trihydroxytetrahydro-2H-pyran-2-carboxylic acid formation at 10 uM after 30 mins by LC-MS/MS analysis; assay type: ADME; conditions: recombinant enzyme, 0.5 h
Cytochrome P450 2C8 [8] = target: T4, Cytochrome P450 2C8; assay: Inhibition of CYP2C8 in human liver microsomes assessed as paclitaxel 6-hydroxylation after 5 to 30 mins by LC-MS/MS analysis; assay type: ADME
[9] = target: UDP-glucuronosyltransferase 1A6 (Homo sapiens, UniProt P19224); assay: as §1, with “UGT1A6-mediated” for “UGT1A1-mediated”; assay type: ADME; conditions: recombinant enzyme, 0.5 h
[10] = target: UDP-glucuronosyltransferase 2B4 (Homo sapiens, UniProt P06133); assay: as §1, with “UGT2B4-mediated” for “UGT1A1-mediated”; assay type: ADME; conditions: recombinant enzyme, 0.5 h
[11] = AUC (0 to infinity) in healthy human at 50 mg, po; assay type: ADME, organism-based; parameters: dose 50 mg, route oral, time infinity; conditions: plasma
[12] = Drug metabolism in human liver microsomes assessed as […]-mediated (2S,3S,4S,5R,6S)-6-(2-(4-(4-(tert-butylcarbamoyl)-2-(2-chloro-4-cyclopropylphenylsulfonamido)phenoxy)-5-chloro-2-fluorophenyl)acetoxy)-3,4,5-trihydroxytetrahydro-2H-pyran-2-carboxylic acid formation after 15 mins by LC-MS/MS analysis in presence of UDPGA; assay type: ADME; conditions: 0.25 h
Cytochrome P450 3A7 = Cytochrome P450 3A7 (Homo sapiens, UniProt P24462); assay: Drug metabolism assessed as recombinant CYP3A7 (unknown origin)-mediated 2-(5-chloro-4-(2-(2-chloro-4-cyclopropylphenylsulfonamido)-4-(1-hydroxy-2-methylpropan-2-ylcarbamoyl)phenoxy)-2-fluorophenyl)acetic acid formation at 10 uM after 30 mins by LC-MS/MS analysis; assay type: ADME; conditions: recombinant enzyme, 0.5 h
[13] = target: T1, UDP-glucuronosyltransferase 1A8; assay: as §1, with “UGT1A8-mediated” for “UGT1A1-mediated”; assay type: ADME; conditions: recombinant enzyme, 0.5 h
[14] = AUC (0 to infinity) in healthy human at 50 mg, po in presence of ketoconazole; assay type: ADME, organism-based; parameters: dose 50 mg, route oral, time infinity; conditions: plasma
CYP2B6 = assay: Upregulation of CYP2B6 mRNA expression in human hepatocytes at 0.3 to 30 uM treated every 24 hrs for 2 days measured on day 5 relative to control; assay type: ADME, cell-based, Hepatocyte; conditions: read-out: FC

T1 sequence (Q9HAW9 whole entry): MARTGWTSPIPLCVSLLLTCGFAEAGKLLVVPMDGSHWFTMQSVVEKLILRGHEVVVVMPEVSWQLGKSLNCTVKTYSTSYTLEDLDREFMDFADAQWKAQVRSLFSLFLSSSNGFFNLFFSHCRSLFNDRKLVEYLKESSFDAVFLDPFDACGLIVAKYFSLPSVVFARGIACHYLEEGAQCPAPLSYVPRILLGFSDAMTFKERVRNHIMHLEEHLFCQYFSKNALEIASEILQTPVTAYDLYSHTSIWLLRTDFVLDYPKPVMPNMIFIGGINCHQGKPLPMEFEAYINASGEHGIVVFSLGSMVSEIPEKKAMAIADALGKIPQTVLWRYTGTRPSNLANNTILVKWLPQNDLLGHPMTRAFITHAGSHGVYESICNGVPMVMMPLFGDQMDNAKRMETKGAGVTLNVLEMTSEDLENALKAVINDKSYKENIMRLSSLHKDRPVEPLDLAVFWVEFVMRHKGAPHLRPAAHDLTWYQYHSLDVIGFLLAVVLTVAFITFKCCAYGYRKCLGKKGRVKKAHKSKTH
Sequence of Cytochrome P450 3A7 (P24462 whole entry): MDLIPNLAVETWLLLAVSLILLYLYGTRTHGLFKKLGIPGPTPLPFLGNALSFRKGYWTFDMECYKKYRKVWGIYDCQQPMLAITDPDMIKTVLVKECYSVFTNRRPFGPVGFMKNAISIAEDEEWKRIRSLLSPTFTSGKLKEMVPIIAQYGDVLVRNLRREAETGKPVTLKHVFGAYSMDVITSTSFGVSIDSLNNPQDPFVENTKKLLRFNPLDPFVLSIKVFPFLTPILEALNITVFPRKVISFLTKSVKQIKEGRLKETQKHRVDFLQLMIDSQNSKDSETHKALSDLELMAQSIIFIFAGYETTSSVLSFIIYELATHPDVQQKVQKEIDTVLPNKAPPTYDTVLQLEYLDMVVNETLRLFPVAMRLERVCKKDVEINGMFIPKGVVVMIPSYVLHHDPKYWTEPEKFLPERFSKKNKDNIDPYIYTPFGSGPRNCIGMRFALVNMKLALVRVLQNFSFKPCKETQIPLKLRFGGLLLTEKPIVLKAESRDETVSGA
Sequence of UDP-glucuronosyltransferase 1A6 (P19224 whole entry): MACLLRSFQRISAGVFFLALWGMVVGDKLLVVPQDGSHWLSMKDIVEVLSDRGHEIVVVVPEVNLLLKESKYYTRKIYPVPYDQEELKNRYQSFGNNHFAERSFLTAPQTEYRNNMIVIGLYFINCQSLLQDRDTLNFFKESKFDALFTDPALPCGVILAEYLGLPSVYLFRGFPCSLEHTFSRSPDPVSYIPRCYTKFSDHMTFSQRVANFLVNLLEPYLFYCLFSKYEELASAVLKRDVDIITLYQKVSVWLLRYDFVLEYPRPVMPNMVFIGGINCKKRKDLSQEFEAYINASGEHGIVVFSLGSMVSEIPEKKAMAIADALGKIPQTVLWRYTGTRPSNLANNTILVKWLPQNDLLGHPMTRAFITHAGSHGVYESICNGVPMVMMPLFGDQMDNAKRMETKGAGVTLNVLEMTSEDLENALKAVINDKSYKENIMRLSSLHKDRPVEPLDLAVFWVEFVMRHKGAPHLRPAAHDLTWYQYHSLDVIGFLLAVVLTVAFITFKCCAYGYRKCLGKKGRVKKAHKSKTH
Sequence of UDP-glucuronosyltransferase 2B4 (P06133 whole entry): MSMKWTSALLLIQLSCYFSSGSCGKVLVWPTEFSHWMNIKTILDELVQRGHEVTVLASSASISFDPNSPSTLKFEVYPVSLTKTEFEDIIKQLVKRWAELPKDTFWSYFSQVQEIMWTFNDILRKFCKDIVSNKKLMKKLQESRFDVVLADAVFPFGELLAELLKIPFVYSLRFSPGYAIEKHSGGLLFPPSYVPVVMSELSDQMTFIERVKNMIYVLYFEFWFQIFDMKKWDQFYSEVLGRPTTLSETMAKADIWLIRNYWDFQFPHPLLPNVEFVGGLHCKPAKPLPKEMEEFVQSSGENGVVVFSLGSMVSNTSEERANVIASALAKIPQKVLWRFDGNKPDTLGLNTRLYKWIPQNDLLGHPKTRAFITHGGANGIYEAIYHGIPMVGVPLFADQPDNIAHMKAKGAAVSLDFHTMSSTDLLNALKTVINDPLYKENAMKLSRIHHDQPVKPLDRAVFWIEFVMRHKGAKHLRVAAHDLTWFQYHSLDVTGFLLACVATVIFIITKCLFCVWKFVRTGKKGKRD

| SMILES | Drug metabolism [1] | S50 [2] [µM] | Vmax [2] [pmol/min/mg] | Drug metabolism [3] | Drug metabolism [4] | Drug metabolism (Cytochrome P450 2C8 [5]) | Cmax [6] [ng/mL] | Drug metabolism [7] | IC50 (Cytochrome P450 2C8 [8]) [µM] | Drug metabolism [9] | Drug metabolism [10] | AUC(0-inf) [11] [ng·h/mL] | Drug metabolism [12] | Drug metabolism (Cytochrome P450 3A7) | Drug metabolism [13] | AUC(0-inf) [14] [ng·h/mL] | fold induction at 48 h, up to 30 µM (CYP2B6) |
| --- | --- | --- | --- | --- | --- | --- | --- | --- | --- | --- | --- | --- | --- | --- | --- | --- | --- |
| CC(C)(C)NC(=O)c1ccc(Oc2cc(F)c(CC(=O)O[C@@H]3O[C@H](C(=O)O)[C@@H](O)[C@H](O)[C@H]3O)cc2Cl)c(NS(=O)(=O)c2ccc(C3CC3)cc2Cl)c1 | metabolite_detected | 218.4 | 3.45 | metabolite_detected | metabolite_detected | – | – | – | – | – | – | – | – | – | – | – | – |
| CC(C)(C)NC(=O)c1ccc(Oc2cc(F)c(CC(=O)O)cc2Cl)c(NS(=O)(=O)c2ccc(C3CC3)cc2Cl)c1 [VIDUPIPRANT] | – | – | – | – | – | metabolite_detected | 270 | metabolite_detected | 5.4 | metabolite_not_detected | metabolite_not_detected | 671 | metabolite_detected | metabolite_detected | metabolite_detected | 800 | 1.7 |
